In patent US20100204182A1, “ECTONUCLEOTIDASE INHIBITORS” (RHEINISCHE FRIEDRICH-WILHELMS-UNIVERSITAT BONN, priority 2006, published 2010):
Where two headings read alike, the source gives them in different places.

How the values were obtained:
[1] = target: T1, human NTPDase1 (Homo sapiens, UniProt P49961); test: NTPDase inhibition assay by capillary electrophoresis (CE), NTPDase1; format: biochemical; conditions: ATP 320 μM; for inhibition at 1000 µM: 1 mM compound; for Ki: CE method, Km 17 μM, read-out: NTPDase1 Ki [μM] ± SEM
T1 sequence (P49961 1-510): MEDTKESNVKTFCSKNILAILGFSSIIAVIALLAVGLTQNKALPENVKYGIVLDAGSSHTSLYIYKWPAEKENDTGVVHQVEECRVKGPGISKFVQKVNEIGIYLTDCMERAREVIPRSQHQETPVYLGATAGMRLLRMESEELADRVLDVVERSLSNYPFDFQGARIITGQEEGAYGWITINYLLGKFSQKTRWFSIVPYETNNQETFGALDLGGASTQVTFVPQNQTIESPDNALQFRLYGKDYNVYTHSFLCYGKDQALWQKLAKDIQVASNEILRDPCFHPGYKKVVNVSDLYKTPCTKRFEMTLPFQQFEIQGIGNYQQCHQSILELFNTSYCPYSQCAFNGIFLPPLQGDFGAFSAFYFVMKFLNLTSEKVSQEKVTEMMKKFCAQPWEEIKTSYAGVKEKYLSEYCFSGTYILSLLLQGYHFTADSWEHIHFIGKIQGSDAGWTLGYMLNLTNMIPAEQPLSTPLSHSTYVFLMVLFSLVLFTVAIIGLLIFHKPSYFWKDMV
Method: (§1) The applied enzyme inhibition assay has been described (Iqbal J, Vollmayer P, Braun N, Zimmermann H, Müller C E. A capillary electrophoresis method for the characterization of ecto-nucleoside triphosphate diphosphohydrolases (NTPDases) and the analysis of inhibitors by in-capillary enzymatic microreaction. Purinergic Signalling 2005, 1, 349-358).
(§2) A. CE instrumentation: All experiments were carried out using a P/ACE MDQ capillary electrophoresis system (Beckman Instruments, Fullerton, Calif., USA) equipped with a UV detection system coupled with a diode-array detector (DAD). Data collection and peak area analysis were performed by the P/ACE MDQ software 32 KARAT obtained from Beckman Coulter. The capillary temperature was kept constant at 25° C. The temperature of the sample storing unit was also adjusted to 25° C. The electrophoretic separations were carried out using an eCAP polyacrylamide-coated fused-silica capillary [(30 cm (20 cm effective length)×50 μm internal diameter (I.D.)×360 μm outside diameter (O.D.), obtained from CS-Chromatographie (Langerwehe, Germany)]. The separation was performed using an applied current of −60 μA and a data acquisition rate of 8 Hz. Analytes were detected using direct UV absorbance at 210 nm. The capillary was conditioned by rinsing with water for 2 min and subsequently with buffer (phosphate 50 mM, pH 6.5) for 1 min. Sample injections were made at the cathodic side of the capillary.
(§3) B. NTPDase inhibition assay by capillary electrophoresis: Enzyme inhibition assays were carried out at 37° C. in a final volume of 100 μl. The reaction mixture contained 320 μM of ATP (substrate) in reaction buffer. The reaction buffer contained 140 mM NaCl, 5 mM KCl, 1 mM MgCl2, 2 mM CaCl2, and 10 mM Hepes, pH 7.4.
(§4) Different concentrations of inhibitors dissolved in DMSO or water (10 μl) were added and the reaction was initiated by the addition of 10 μl of the appropriately diluted recombinant or native human or rat NTPDase enzyme. […] The mixture (final volume 100 μl) was incubated for 15 min and terminated by heating at 99° C. for 4 min. Aliquots of the reaction mixture (50 μl) were then transferred to mini-CE vials and injected into the CE instrument under the conditions described above. 20 μM of UMP was used as internal standard. Inhibition of NTPDase was tested over a range of 6 to 8 concentrations of test compound spanning 3 orders of magnitude to determine K1 values. Each analysis was repeated two times (in triplicates) in two separate experiments. The Cheng-Prusoff equation was used to calculate the K1 values from the IC50 values, determined by the non-linear curve fitting program PRISM® 3.0 (GraphPad, San Diego, Calif., USA). In table 1K, values of selected compounds as inhibitors of human NTPDases are given.

[2] = target: T2, human NTPDase2 (Homo sapiens, UniProt Q9Y5L3); test: NTPDase inhibition assay by capillary electrophoresis (CE), NTPDase2; format: biochemical; conditions: for inhibition at 1000 µM: read-out: NTPDase2 inhibition (%) at 1 mM
T2 sequence (Q9Y5L3 1-495): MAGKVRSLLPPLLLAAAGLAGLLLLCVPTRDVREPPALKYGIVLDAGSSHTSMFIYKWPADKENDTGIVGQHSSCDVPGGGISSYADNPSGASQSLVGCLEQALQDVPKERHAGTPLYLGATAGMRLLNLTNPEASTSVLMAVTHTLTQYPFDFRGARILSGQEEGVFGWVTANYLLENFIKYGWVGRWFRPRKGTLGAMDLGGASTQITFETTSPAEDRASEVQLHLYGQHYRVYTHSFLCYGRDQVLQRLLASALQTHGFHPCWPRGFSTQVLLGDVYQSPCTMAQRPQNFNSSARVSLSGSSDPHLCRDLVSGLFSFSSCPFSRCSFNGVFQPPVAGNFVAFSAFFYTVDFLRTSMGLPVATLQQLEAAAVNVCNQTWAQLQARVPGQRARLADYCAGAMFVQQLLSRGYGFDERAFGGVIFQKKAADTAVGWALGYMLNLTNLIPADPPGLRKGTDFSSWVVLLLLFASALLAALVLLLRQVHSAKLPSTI

[3] = target: rP2Y6 (Rattus norvegicus, UniProt Q63371); test: Inhibition of UDP binding at rP2Y6; conditions: read-out: rP2Y6 % inhibition of UDP binding at 100 μM, n = 3, mean ± SEM
Chain of rP2Y6 (Q63371 whole entry): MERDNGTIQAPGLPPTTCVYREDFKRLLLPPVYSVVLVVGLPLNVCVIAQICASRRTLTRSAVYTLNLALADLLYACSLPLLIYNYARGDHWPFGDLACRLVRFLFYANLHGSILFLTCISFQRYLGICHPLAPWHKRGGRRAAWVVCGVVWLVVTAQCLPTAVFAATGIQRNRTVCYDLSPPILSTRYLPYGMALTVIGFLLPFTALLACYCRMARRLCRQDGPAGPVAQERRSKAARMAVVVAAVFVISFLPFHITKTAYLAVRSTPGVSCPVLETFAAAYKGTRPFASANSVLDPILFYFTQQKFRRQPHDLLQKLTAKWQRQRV

[4] = target: T3, human NTPDase3 (Homo sapiens, UniProt O75355); test: NTPDase inhibition assay by capillary electrophoresis (CE), NTPDase3; format: biochemical; conditions: ATP 320 μM; for inhibition at 1000 µM: 1 mM compound; for Ki: CE method, Km 75 μM, read-out: NTPDase3 Ki [μM] ± SEM
T3 sequence (O75355 1-529): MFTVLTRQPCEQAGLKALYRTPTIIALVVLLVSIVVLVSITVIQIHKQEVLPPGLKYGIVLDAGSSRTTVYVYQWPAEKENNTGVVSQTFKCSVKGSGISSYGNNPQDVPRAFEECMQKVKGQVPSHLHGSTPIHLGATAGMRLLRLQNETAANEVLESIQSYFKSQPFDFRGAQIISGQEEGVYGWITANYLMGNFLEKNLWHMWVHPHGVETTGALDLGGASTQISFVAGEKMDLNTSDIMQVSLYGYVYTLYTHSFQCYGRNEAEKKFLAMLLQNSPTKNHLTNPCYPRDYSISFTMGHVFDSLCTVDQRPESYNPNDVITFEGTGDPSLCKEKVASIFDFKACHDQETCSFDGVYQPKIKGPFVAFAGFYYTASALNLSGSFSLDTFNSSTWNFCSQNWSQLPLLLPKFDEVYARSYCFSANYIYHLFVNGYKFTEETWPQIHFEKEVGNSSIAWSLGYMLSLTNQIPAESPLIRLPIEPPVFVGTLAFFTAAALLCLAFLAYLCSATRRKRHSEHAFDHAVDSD
Method: as §1, §2, §3, §4

[5] = target: T4, human NTPDase8 (Homo sapiens, UniProt Q5MY95); test: NTPDase inhibition assay by capillary electrophoresis (CE), NTPDase8; format: biochemical; conditions: for Ki: read-out: NTPDase8 Ki [μM] ± SEM; for inhibition at 1000 µM: human NTPDase8, 1 mM compound, ATP 320 μM
T4 sequence (Q5MY95 1-495): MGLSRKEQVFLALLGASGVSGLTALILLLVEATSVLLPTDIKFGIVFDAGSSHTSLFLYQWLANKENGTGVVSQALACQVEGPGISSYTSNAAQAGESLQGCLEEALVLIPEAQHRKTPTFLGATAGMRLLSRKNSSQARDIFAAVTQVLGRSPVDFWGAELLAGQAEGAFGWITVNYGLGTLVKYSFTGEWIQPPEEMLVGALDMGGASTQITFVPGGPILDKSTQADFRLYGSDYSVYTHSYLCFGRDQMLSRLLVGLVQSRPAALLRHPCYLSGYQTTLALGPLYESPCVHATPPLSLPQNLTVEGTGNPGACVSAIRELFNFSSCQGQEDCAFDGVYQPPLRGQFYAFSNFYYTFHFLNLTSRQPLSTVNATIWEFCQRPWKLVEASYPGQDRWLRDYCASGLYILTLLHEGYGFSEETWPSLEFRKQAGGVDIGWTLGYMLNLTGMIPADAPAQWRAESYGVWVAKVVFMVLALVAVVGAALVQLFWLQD
Method: as §1, §2, §3, §4

[6] = target: hP2Y12 (Homo sapiens, UniProt Q9H244); test: Inhibition of [3H]PSB-0413 binding at hP2Y12; conditions: mean ± SEM, read-out: hP2Y12 % Inhibition of [^3H]PSB-0413 Binding at 10 μM, n = 3
Chain of hP2Y12 (Q9H244 whole entry): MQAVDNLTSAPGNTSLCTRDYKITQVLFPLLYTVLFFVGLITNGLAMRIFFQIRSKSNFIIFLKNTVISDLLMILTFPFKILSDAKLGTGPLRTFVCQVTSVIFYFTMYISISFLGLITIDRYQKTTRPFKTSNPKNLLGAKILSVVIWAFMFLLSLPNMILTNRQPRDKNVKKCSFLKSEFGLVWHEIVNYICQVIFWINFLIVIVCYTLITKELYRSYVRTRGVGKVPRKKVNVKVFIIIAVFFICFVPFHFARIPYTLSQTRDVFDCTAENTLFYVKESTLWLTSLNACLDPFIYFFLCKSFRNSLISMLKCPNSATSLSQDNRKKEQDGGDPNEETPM
Method: In table 2 inhibition data of selected examples at human P2Y receptor subtypes were collected. It can be seen that no compound was identified that inhibited P2Y receptors at high concentrations of 100 μM and 10 μM, respectively.

[7] = human NTPDase2, CE method, ATP 320 μM, Km 70 μM, read-out: NTPDase2 Ki [μM] ± SEM

Row | NTPDase2 inhibition (%) at 1 mM ([2]; human NTPDase2, 1 mM compound, ATP 320 μM) | SMILES | inhibition at 1000 µM [1] | Ki [1] | Ki [2] | inhibition at 1000 µM [2] | inhibition at 100 µM [3] | Ki [2, 7] | inhibition at 1000 µM [4] | Ki [4] | Ki [5] | inhibition at 10 µM [6] | inhibition at 1000 µM [5]
1 |  | CCOP(=O)(OCC)C(NC(=O)CCCNC(=O)[C@H]1O[C@@H](n2cnc3c(N)ncnc32)C(O)C1O)P(=O)(OCC)OCC (stereo in doubt) [CC5, 4-[(2S,3R,4S,5R)-5-(6-Amino-9H-purin-9-yl)-3,4-dihydroxy-tetrahydrofurane-2-carboxamido]butaneamidomethylenediphosphonic acid tetraethylester] | 0% | > 50 µM | > 200 µM | 0% | -5 ± 2% |  |  |  |  |  | 
2 |  | CCOP(=O)(Cc1ccc(NC(=O)CCNC(=O)[C@H]2O[C@@H](n3cnc4c(N)ncnc43)C(O)C2O)cc1)OCC (stereo in doubt) [CC2, 4-[3-((2S,3R,4S,5R)-5-(6-Amino-9H-purin-9-yl)-3,4-dihydroxy-tetrahydro-furane-2-carboxamido)propaneamido]benzylphosphonic acid diethylester] |  | 154 ± 37 µM |  |  |  | 1440 ± 64 µM | 0% | > 200 µM | 255 ± 25.3 µM | 1 ± 6% | 
3 |  | CCOP(=O)(Cc1ccc(NC(=O)CCCNC(=O)[C@H]2O[C@@H](n3cnc4c(N)ncnc43)C(O)C2O)cc1)OCC (stereo in doubt) [CC3, 4-[4-((2S,3R,4S,5R)-5-(6-Amino-9H-purin-9-yl)-3,4-dihydroxy-tetrahydro-furane-2-carboxamido)butaneamido]benzylphosphonic acid diethylester] |  | 161 ± 24 µM |  |  |  | 213 ± 34 µM | 0% | > 200 µM | > 100 µM | 5 ± 1% | 0%
4 |  | CCOP(=O)(OCC)C(NC(=O)CCNC(=O)[C@H]1O[C@@H](n2cnc3c(N)ncnc32)C(O)C1O)P(=O)(OCC)OCC (stereo in doubt) [CC4, 3-[(2S,3R,4S,5R)-5-(6-Amino-9H-purin-9-yl)-3,4-dihydroxy-tetrahydrofurane-2-carboxamido]propaneamidomethylenediphosphonic acid tetraethylester] | 0% | > 50 µM | > 200 µM | 0% | 5 ± 8% |  |  |  |  |  | 
5 | 54% | CCOP(=O)(CC(=O)OCCNC(=O)CNC(=O)[C@H]1O[C@@H](n2ccc(=O)[nH]c2=O)[C@@H](O)[C@H]1O)OCC [Compound 9, 2-[(2S,3R,4S,5R)-5-(2,4-Dioxo-3,4-dihydropyrimidin-1(2H)-yl)-3,4-dihydroxy-tetrahydro-furane-2-carboxamido]ethaneamido-ethyloxycarbonyl methylenephosphonic acid diethylester] |  |  |  |  |  | ~165 µM |  |  |  |  | 
6 |  | CCOP(=O)(Cc1ccc(NC(=O)CNC(=O)[C@H]2O[C@@H](n3cnc4c(N)ncnc43)C(O)C2O)cc1)OCC (stereo in doubt) [CC1, 4-[2-((2S,3R,4S,5R)-5-(6-Amino-9H-purin-9-yl)-3,4-dihydroxy-tetrahydro-furane-2-carboxamido)ethaneamido]benzylphosphonic acid diethylester] | 0% | > 50 µM | > 200 µM | 0% |  |  | 0% | > 200 µM | > 100 µM | -4 ± 6% | 0%
7 |  | CCOP(=O)(Cc1ccc(NC(=O)[C@H]2O[C@@H](n3ccc(=O)[nH]c3=O)C(O)C2O)cc1)OCC (stereo in doubt) [Compound 1, 4-[(2S,3R,4S,5R)-5-(2,4-Dioxo-3,4-dihydropyrimidin-1(2H)-yl)-3,4-dihydroxy-tetrahydrofurane-2-carboxamido]benzylphosphonic acid diethylester] |  |  | 117 ± 15 µM |  | -12 ± 3% |  |  |  |  |  | 
